Data on six substances can be found in US20100003228A1, “T-CELL VACCINE” (priority 2006, published 2010).

Common to all, as to assay type: cell-based, human
Assay [1] deals with myelin reactive T cells in PBMCs. The assay is described as follows: Epitope Analysis Assay (EAA): PBMC stimulation with myelin peptide mixes, tritiated thymidine incorporation, SI of at least 3 positive. Conditions: for subjects tested that were reactive: all 54 subjects tested. As for the experimental part: The SI may be calculated by comparing [^3H] thymidine incorporation of the sample in the presence of a peptide comprising a portion of an MRTC polypeptide target to that in the presence of a media only control. Briefly, separate aliquots of the sample are plated and incubated in the presence of either a peptide comprising a portion of the polypeptide or a media only control in order to stimulate reactive T cells. The cultures are pulsed with [^3H] thymidine during the last 6-18 hours of incubation. The SI is calculated as the quotient of the mean counts per minute (cpm) of the antigen aliquots/mean cpm of the control aliquots. The SI of autoreactive T cells may be increased by at least a factor of 1.3, 1.4, 1.5, 1.6, 1.7, 1.8, 1.9, 2.0, 2.1, 2.2, 2.3, 2.4, 2.5, 2.6, 2.7. 2.8, 2.9, 3.0, 3.1, 3.2, 3.3, 3.4, 3.5, 3.6, 3.7, 3.8, 3.9, or 4.0 compared to a control.
The peptides in Example 2 were tested in an in vitro PBMC stimulation assay to identify myelin reactive T cells in a patient's blood. Peripheral blood mononuclear cells (PBMCs) were separated from whole blood, washed, counted and plated at 250,000 cells per well in a total of four 96-well plates. Myelin peptide mixes of two overlapping 16-mer peptides were added to triplicate wells of PBMCs with triplicate media only control wells included on each plate and then incubated. After two days of incubation, 20 U/ml of interleukin-2 (IL-2) was added. On the fifth day, the plates were labeled with a radioisotope (tritiated thymidine) and harvested 6 hours later. In this assay, the cells that incorporate tritiated thymidine are representative of T cells being activated and induced to proliferate by the T cell receptor-peptide-MHC complexes. T cells incorporating comparatively more tritiated thymidine than control and experimental cells are more highly activated T cells and are proliferating more rapidly.
Stimulation Indices (SI) were determined for each peptide mix by dividing the mean radiolabel counts per minute (CPM) of the peptide stimulated wells by the mean CPM of the media only control wells averaged across all four plates. An SI of at least 3 was considered positive. FIG. 1 is an example of EAA from one MS patient. Seven of the peptide mixtures were slightly reactive, with the MOGm15 stimulated wells being very reactive. FIGS. 2-4 show the frequency of reactivity to the peptide mixes in 48 patients.

For assay [2] the test system is unchanged. Nature of the assay: EAA with positivity by Variance Evaluation Method or CPM Variance Method (clinical trials). Conditions: clinical trial population, RR-MS or CIS subjects. From the text:
The predetermined value may also be calculated using a Variance Evaluation Method as follows: • 1. EAAs may be run on a given patient population (minimum of 120 assays from 120 unique subjects) • 2. A “negative population” may be created by averaging all SI values<2.5 • 3. The Standard Deviation (SD) may be calculated for each peptide • 4. The following for each peptide may be then be calculated: • a. Average+1SD • b. Average+2SD • c. Average+3SD • 5. The following SIs may be considered above the predetermined value: • a. SI greater than or equal to the average+3SD • b. Any SI greater than or equal to 2.5
The predetermined value may also be evaluated using a Counts per Minute (CPM) Variance Method. This algorithm may set a comprehensive cutoff for all peptides within a given assay. It may be calculated as follows: • 1. EAAs may be run and the CPM for all control (media only, no antigen) wells averaged. • 2. The SD for CPM of the control wells may then be calculated. • 3. The following may then be calculated for the control wells: • a. Average+1SD • b. Average+2SD • c. Average+3SD • 4. Any peptide with an average CPM greater than or equal to the average+3SD of the control wells may be considered above the predetermined value.
Any peptide, either analyzed in an individual well or as averaged over wells run in triplicate, with an SI≧2.5, an SI≧average+3SD by the Variance Evaluation Method, or an SI≧average+3SD by the CPM variance method may be considered above the predetermined value, which may indicate a T cell(s) positive for reactivity to a peptide.
The peptides of Example 3 have been tested in 429 EAAs in clinical trials as follows. […] Pre-Vaccine EAAs have 158 positive out of 387 assays (40.8%), with Relapse Remitting MS patients (RRMS) showing 150 positive of 368 assays (40.8%), and Clinically Isolated Syndrome (CIS) patients showing 8 positive of 19 assays (42.1%).
Over the course of 6 months a study was conducted with 120 subjects meeting the criteria for the clinical trial.
The above mentioned population of subjects was evaluated by EAA using the Variance Evaluation Method and CPM Variance Method as described above, and deemed eligible for vaccine production. Of the 120 attempts to manufacture vaccine, there were 2 shipping failures (blood was not received within our stated criteria), 1 culture was lost to contamination and 5 samples arrived with low cell volume/yield. Of the remaining 112 subjects, vaccine was successfully generated in 89 subjects, with 22 still in production (98.9% of eligible samples, 92.5% of all samples completed). From this, a positive EAA was deemed predictive of the ability to manufacture a vaccine to therapeutic dose by methods disclosed herein.

Assay [3] relates to PBMCs / T cells. The assay is described as follows: Growth analysis of T cell lines stimulated with EAA-selected peptide mixes. Conditions: from 15 million PBMCs, in 20 days, 3 stimulations. As for the experimental part: Patient-specific peptides identified by EAA were tested to determine whether they could be used to produce and expand myelin-reactive T-cells for use in a vaccine. A 500 ml bag of blood was obtained from the patient to set up vaccine production cultures. Bulk cultures were set up in AIM V medium along with the optimized peptides. After 48 hours of incubation, rIL-2 was added at 20 U/ml. Seven days later, the cultures were re-stimulated with PBMCs and peptide. The media was changed to 2% AB serum with 100 U/ml rIL2 in X Vivo 15 medium. The cultures were fed and split every 1-4 days as necessary. After an additional seven days, the cultures were once again stimulated with APCs and peptides. The cultures were continued to be fed and split every 1-4 days as necessary. After an additional 7-14 days, the cultures had expanded to at least 100×10^6 cells. The cells were divided into aliquots of 10×10^6 cells and frozen.
The ability of stimulation with the EAA-selected peptides to more rapidly expand the stimulated the T cells were tested. The cell growth curves were analyzed for two different stimulatory peptide mixes. The EAA CPM data shown in FIG. 8 show a strongly reactive mix in MBPm19 for a patient with an SI of 4.7. […] These two peptides mixes were then used to stimulate PBMCs from this patient to produce T cell lines. […]

In assay [4] the test system is myelin-reactive T cells. Nature of the assay: Growth of myelin reactive T cell lines with low stimulation indices. The text has this:
Using the algorithms described above, statistically significant SIs as low as 1.3 have been observed and therefore should be able grow in response to antigen. To verify this ability, 5 cell lines across two patients are shown with an SI<2.0. The results are shown in Table 12 and FIG. 24, which indicate growth of these cell lines with only peptide antigen stimulation and common T cell growth factors.
PBMC for subject 1042 were run in the EAA, and […] were positive, including PLPm18 with an SI of 1.8, PLPm26 with an SI of 2.5 and PLPm28 with an SI of 2.5. […] PBMC for subject 1014 were run in the EAA, and 4 mixes were positive, including MBPm14 with an SI of 1.7, PLPm17 with an SI of 1.7, PLPm28 with an SI of 2.2 and MOGm6 with an SI of 1.9. […]
PBMCs were isolated via density gradient centrifugation from peripheral blood obtained through venipuncture into ACD-1 anticoagulant. PBMCs were plated at 2.5E+06 cells/well in 24 well plates. Antigen in the form of 16mer peptides identified in the EAA were added at a final concentration of 20 ug/ml. Interluekin-2 (IL-2) was added at a final concentration of 100 U/ml starting at 48 hours and IL-2 was added at the same concentration with each feeding or splitting of wells. Peptide restimulation in the presence of antigen presenting cells (APCs-autologous PBMCs irradiated at 3500 rad) was done at days 7, 14 and 21. Interleukin-15 (IL-15) was added at a final concentration of 5 ng/ml-20 ng/ml (lot specific) starting at day 14 and continued through the remainder of the culture period. Cells lines were all harvested by day 35 and had achieved expansions of 3.0-8.2 fold.

Take “PLP 180-199: PLP immunodominant peptide used to prepare vaccines in Example 1 (TWTTCQSIAFPSKTSASIGS; UniProt P60201 180-199, looked up, fragment)”: the “subjects tested that were reactive” value in assay [1] turned out to be 31%.
Regarding “PLPm33: mix of PLP 65 and PLP 66 (chain 1 FMIAATYNFAVLKLMG; chain 2 ATYNFAVLKLMGRGTK)”, in assay [2], the “# of Subjects (frequency of identification)” value (from here on “# of Subjects”) turned out to be 11 and the “% of Subjects (frequency of identification)” value (from here on “% of Subjects”) was determined as 9.2%. Besides, the “T cells after expansion” value in assay [3] is 200 million T cells. Besides, the “Stimulation Index (SI)” value in assay [1] (patient of Example 8, FIG. 8) is 17.9.
Regarding “MBP 151-170: immunodominant peptide of MBP used to prepare vaccines in Example 1 (TASTMDHARHGFLPRHRDTG; UniProt P02686 151-170, looked up, fragment)”, the “subjects tested that were reactive” value in assay [1] is “Forty-one percent”.
Consider “PLPm17: mix of PLP 33 and PLP 34 (chain 1 QHQAHSLERVCHCLGK; chain 2 HSLERVCHCLGKWLGH)”, for which the “# of Subjects” value in assay [2] is on record as 14. In addition, the “% of Subjects” value in assay [2] is listed as 11.8%. For the same substance, the “Fold Expansion” value is listed as 1.0 in assay [4] (subject 1014, Day 0); 0.7 in assay [4] (subject 1014, Day 17); 1.2 in assay [4] (subject 1014, Day 19); 3.5 in assay [4] (subject 1014, Day 28); 2.9 in assay [4] (subject 1014, Day 33); 4.7 in assay [4] (subject 1014, Day 35). For the same substance, the “Viable Cell Count, Count/well” value in assay [4] (subject 1014, Day 0) was 2.50E+06; in assay [4] (subject 1014, Day 17) it was 2.34E+06; in assay [4] (subject 1014, Day 19), 3.85E+06; in assay [4] (subject 1014, Day 28), 4.77E+06; in assay [4] (subject 1014, Day 33) it was 3.89E+06; in assay [4] (subject 1014, Day 35) it was 4.73E+06. Further, the “Viable Cell Count, Total Cells” value is on record as 2.25E+07 in assay [4] (subject 1014, Day 0); 2.11E+07 in assay [4] (subject 1014, Day 17); 3.47E+07 in assay [4] (subject 1014, Day 19); 1.05E+08 in assay [4] (subject 1014, Day 28); 8.56E+07 in assay [4] (subject 1014, Day 33); 1.42E+08 in assay [4] (subject 1014, Day 35).
Turning to “PLPm18: mix of PLP 35 and PLP 36 (chain 1 RVCHCLGKWLGHPDKF; chain 2 CLGKWLGHPDKFVGIT)”, in assay [2], the “# of Subjects” value was determined as 10. Also, the “% of Subjects” value in assay [2] was found to be 8.4%. The “Fold Expansion” value in assay [4] (subject 1042, Day 0) came to 1.0; in assay [4] (subject 1042, Day 14), 0.4; in assay [4] (subject 1042, Day 19), 0.8; in assay [4] (subject 1042, Day 26), 1.2; in assay [4] (subject 1042, Day 33) it was 3.0; in assay [4] (subject 1042, Day 35), 3.0. Also, the “Viable Cell Count, Count/well” value in assay [4] (subject 1042, Day 0) was 2.50E+06; in assay [4] (subject 1042, Day 14), 9.60E+05; in assay [4] (subject 1042, Day 19), 1.97E+06; in assay [4] (subject 1042, Day 26), 1.50E+06; in assay [4] (subject 1042, Day 33), 3.76E+06; in assay [4] (subject 1042, Day 35), 3.74E+06. Moreover, the “Viable Cell Count, Total Cells” value in assay [4] (subject 1042, Day 0) was found to be 3.00E+07; in assay [4] (subject 1042, Day 14), 1.15E+07; in assay [4] (subject 1042, Day 19), 2.36E+07; in assay [4] (subject 1042, Day 26), 3.60E+07; in assay [4] (subject 1042, Day 33) it was 9.02E+07; in assay [4] (subject 1042, Day 35), 8.98E+07.
Regarding “PLP 30-49: PLP immunodominant peptide used to prepare vaccines in Example 1 (ALFCGCGHEALTGTEKLIET; UniProt P60201 30-49, looked up, fragment)”, the “subjects tested that were reactive” value in assay [1] is on record as 31%.
